Assay results published in PubChem BioAssay AID463206 (Broad Institute, 2010).
Active and inactive are the calls of the source.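 How the source made its calls: active means caspase luminescence falls with dose and the half-maximal concentration AC50 from the fitted curve is at or below a set limit; inconclusive means flat fit at 30 to 70% signal loss, or invalid fit; inactive means AC50 above the limit, or signal rises instead.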

What follows are compounds tested on INS-1E cytokine-induced caspase-3/7, Caspase-Glo luminescence, 48 h (assay: suppression of cytokine-driven beta-cell apoptosis – INS-1E rat cells, luminescence, orthogonal assay for beta-cell apoptosis protection project, dose response (AID 463206)).

SMILES	AC50
c1ccc(-c2nc3nonc3nc2-c2ccccc2)cc1	> 26 µM (inactive)
Cc1ccccc1CNc1ccc(C(CC(N)=O)NC(=O)c2ccc(Br)cc2)cc1[N+](=O)[O-] (centres undefined)	> 26 µM (inactive)
C=CCSc1nc2ccccc2n1C(=O)/C=C/c1ccc(OC)c(OC)c1	> 26 µM (inactive)
Cc1[nH]c2ccccc2c1CN1CCC(Cc2ccccc2)CC1	> 26 µM (inactive)
Cc1onc(-c2c(Cl)cccc2Cl)c1C(=O)N/N=C(\N)COc1ccc(Cl)cc1	> 26 µM (inactive)
Cc1cc(OCC(=O)N(C)Cc2ccccc2)ccc1Cl	> 26 µM (inactive)
Cc1ccc2nc(NC(=O)c3ccccn3)sc2c1	> 26 µM (inactive)
COc1cccc(/C=N/Nc2nc3ccccc3[nH]2)c1O	> 26 µM (inactive)
COc1cnc(-c2ccccn2)nc1Sc1ccccc1Cl	> 26 µM (inactive)
O=c1c(Cl)c(Cl)cnn1Cc1ccc(F)cc1	> 26 µM (inactive)
Cn1nnnc1Sc1ncnc2scc(-c3cc4ccccc4o3)c12	> 26 µM (inactive)
CC(=O)Nc1ccc(S(=O)(=O)NC2=C(N3CCN(c4ccc(F)cc4)CC3)C(=O)c3ccccc3C2=O)cc1	> 26 µM (inactive)
CC(=O)c1c(C)oc2c1C(=O)c1ccccc1C2=O	> 26 µM (inactive)
O=C(Nc1nc(-c2ccccn2)cs1)c1cccc(-n2cnnn2)c1	> 26 µM (inactive)
CN1/C(=C\C(=S)NC(=O)c2ccccc2Cl)C(C)(C)c2ccccc21	> 26 µM (inactive)
CCC(/C=C1\Sc2ccc(OC)cc2N1CC)=C\c1sc2ccc(OC)cc2[n+]1CCCS(=O)(=O)[O-]	> 26 µM (inactive)
CCn1c(SCC(=O)Nc2cc(C)on2)nc2sc3c(c2c1=O)CCCC3	> 12 µM (inactive)
O=C(CCCN1C(=O)/C(=C/c2ccccc2)SC1=S)NCCCn1ccnc1	> 26 µM (inactive)
CC(C)(C)c1cc([N+](=O)[O-])cc(C(C)(C)C)c1O	> 26 µM (inactive)
COc1ccccc1-n1c(=O)oc2ccc(Cl)cc2c1=O	> 26 µM (inactive)
NS(=O)(=O)c1ccc(N/N=C2/CCCCC2C2CCCCC2)c([N+](=O)[O-])c1 (centres undefined)	> 12 µM (inactive)
Cc1ccc(C#CC[N+]2(CC#Cc3ccc(C)cc3)CCCCC2)cc1	> 26 µM (inactive)
Cc1nnc(N/N=C/c2ccccn2)[nH]c1=O	> 26 µM (inactive)
O=C(C#Cc1ccccc1)c1ccco1	> 26 µM (inactive)

SMILES	AC50
CN1CCN(c2ccc([N+](=O)[O-])c3no[n+]([O-])c23)CC1	> 26 µM (inactive)
Cc1sc2ncnc(NC3CCN(Cc4ccccc4)CC3)c2c1C	> 26 µM (inactive)
COc1cc(/C=C(/C(=O)c2cccs2)c2nc3ccccc3[nH]2)ccc1O	> 26 µM (inactive)
Cc1cc(C)n(Cc2ccc(NC(=O)c3ccc(COc4ccccc4Br)cc3)cc2)n1	> 26 µM (inactive)
CCOC(=O)c1c(NC(=O)c2cc(-c3ccc(Cl)s3)nc3ccccc23)sc(C(N)=O)c1C	> 26 µM (inactive)
O=C(CC1CC2CCC1C2)NCCc1ccc(Cl)cc1 (centres undefined)	> 26 µM (inactive)
O=C(NC(NC(=S)Nc1ccccc1)C(Cl)(Cl)Cl)c1cccc(Cl)c1 (centres undefined)	> 26 µM (inactive)
Cc1nc2c(=O)n(C)c(=O)nc-2n(C)n1	> 26 µM (inactive)
O=C(Nc1ccc(S(=O)(=O)N2CCOCC2)cc1)c1ccc([N+](=O)[O-])s1	> 26 µM (inactive)
O=[N+]([O-])c1ccc(O)c(/C=N/Nc2ccccn2)c1	> 26 µM (inactive)
CCN(CC)c1ccc(N=Cc2ccc([N+](=O)[O-])o2)cc1	> 26 µM (inactive)
CC(=O)N1CCCc2cc(S(=O)(=O)N3CCCC(C(=O)N4CCN(c5cccc(Cl)c5)CC4)C3)ccc21 (centres undefined)	> 26 µM (inactive)
CCOC(=O)c1ccc(-[n+]2c(-c3ccccc3)cc(-c3ccccc3)cc2-c2ccccc2)cc1	> 26 µM (inactive)
Cc1c(/C=N/Nc2nc3ccccc3[nH]2)c2ccccc2n1C	> 26 µM (inactive)
Cc1ccccc1C(=O)Nc1cccc(C(=O)N/N=C/c2cc(Cl)cc([N+](=O)[O-])c2O)c1	> 26 µM (inactive)
Cc1ccc(O)c(CNc2cccc3cccnc23)c1	> 12 µM (inactive)
CCOC(=O)N1CCN(C(=O)CSCC(=O)Nc2nc(-c3ccc(-c4ccccc4)cc3)cs2)CC1	> 26 µM (inactive)
COc1ccc2nc(/C(C#N)=C\c3ccc(Oc4ccc([N+](=O)[O-])cn4)cc3)[nH]c2c1	> 26 µM (inactive)
CCOC(=O)C(=CNc1ccc(C(O)(C(=O)OCC)C(F)(F)F)cc1C)C(=O)OCC (centres undefined)	> 26 µM (inactive)
O=C(Nc1nc(-c2ccccn2)cs1)c1ccc(Br)s1	> 26 µM (inactive)
CCOc1ccc(CN2CCN(Cc3c[nH]c4ccccc34)CC2)cc1	> 26 µM (inactive)
CCc1ccc(S(=O)(=O)/N=C2\C=C(Nc3ccc(O)cc3)C(=O)c3ccccc32)cc1	> 26 µM (inactive)
C/C(Cn1nnc([N+](=O)[O-])n1)=N\NC(=O)c1ccccc1Cl	> 26 µM (inactive)
Brc1ccc(-[n+]2c(-c3ccccc3)cc(-c3ccccc3)cc2-c2ccccc2)cc1	> 26 µM (inactive)

SMILES	AC50
Cn1nc(C(C)(C)C)cc1C(=O)NCc1ccc(N2CCCC2=O)cc1	> 26 µM (inactive)
Oc1cccc(/C=N/NC(=S)Nc2cccnc2)c1O	> 26 µM (inactive)
O=C(O)c1ccc(S(=O)(=O)/N=C2\C=C(Nc3ccccc3F)C(=O)c3ccccc32)cc1	> 26 µM (inactive)
O=c1nccc(N/N=C/c2ccccc2O)[nH]1	> 26 µM (inactive)
O=[N+]([O-])/C=C/c1ccc2c(ccn2Cc2ccccc2)c1	> 26 µM (inactive)
O=C(N/N=C/c1cc(Cl)ccc1O)c1cccnc1	> 26 µM (inactive)
C=CCn1c(C)c(/C=C/c2cc[n+](C)cc2)c2ccccc21	> 26 µM (inactive)
C=C1C(=O)O[C@@H]2C[C@@H](C)[C@@H]3C=CC(=O)[C@@]3(C)[C@@H](OC(=O)CC(=O)O[C@H]3[C@@H]4C(=C)C(=O)O[C@@H]4C[C@@H](C)[C@@H]4C=CC(=O)[C@]43C)[C@H]12	> 26 µM (inactive)
Oc1[nH]c2ccc(Br)cc2c1N=NC(=S)N1CCOCC1	> 26 µM (inactive)
Cc1nc(C(F)(F)F)c(C(=O)N/N=C(\N)c2ccccn2)s1	> 26 µM (inactive)
COc1ccc(-c2c[n+]3c4n2CCCCC4=C(c2ccc(Br)cc2)C3)cc1	> 26 µM (inactive)
O=C(CSC1=NCCS1)Nc1ccnc2ccccc12	> 26 µM (inactive)
OCCN1CCN(C2Cc3cc(Cl)ccc3Sc3ccc(Cl)cc32)CC1 (centres undefined) (tested in a mixture with another compound)	> 26 µM (inactive)
CN1/C(=C\C(=O)COC(=O)c2ccc(O)c(O)c2)C(C)(C)c2ccccc21	> 26 µM (inactive)
Cc1ccc(Nc2c(-c3ccccn3)nc3cc(C)ccn23)cc1	> 26 µM (inactive)
C[C@H]1CCC/C=C/[C@@H]2C[C@H](O)C[C@H]2[C@H](O)/C=C/C(=O)O1	> 26 µM (inactive)
O=C(c1cc(COc2cccc(C(F)(F)F)c2)on1)N1CCC(c2ccncc2)CC1	> 26 µM (inactive)
COc1cccc(/C=N/NC(=O)c2c(C)nc3ccc(Cl)cn23)c1O	> 26 µM (inactive)
Oc1[nH]c2ccccc2c1N=NC(=S)N1CCOCC1	> 26 µM (inactive)
NC1=NC[C@H](Cc2ccc(O)cc2)N1CCCCC1CCCCC1	> 26 µM (inactive)
COc1ccc(-c2nn(-c3ccccc3)cc2C(=O)OCC(=O)c2ccc(C)c([N+](=O)[O-])c2)cc1	> 26 µM (inactive)
O=C(Nc1ccc(OCC(F)(F)C(F)F)c(C(F)(F)F)c1)c1ccccc1O	> 26 µM (inactive)
CNC(=S)N(Cc1cccs1)Cc1cc2cc(OC)c(OC)cc2[nH]c1=O	> 26 µM (inactive)
CCCC(C)C(=O)Nc1nc(C)c(-c2csc(Nc3ccc(Cl)cc3)n2)s1 (centres undefined)	> 26 µM (inactive)

SMILES	AC50
c1ccc2c(CN3CCCCCCC3)c[nH]c2c1	> 26 µM (inactive)
CCOc1ccc(S(=O)(=O)NCc2ccncc2)cc1	> 26 µM (inactive)
CCCCNC(=O)c1ccc(Cn2c(=S)[nH]c3c([nH]c4ccc(OC)cc43)c2=O)cc1	> 26 µM (inactive)
COc1cc(CSc2nnnn2-c2ccc(C)cc2)cc(OC)c1OC	> 26 µM (inactive)
c1ccc(N2CCN(CC3CCCCC3)CC2)cc1	> 26 µM (inactive)
C=CCn1c(SCC(=O)c2[nH]c(C)c(C(=O)OCC)c2C)nc2scc(-c3ccc(OC)c(OC)c3)c2c1=O	> 12 µM (inactive)
O=C(Nc1cc(-c2ccccc2)nn1C1CCCCC1)c1ccc(Cl)cc1	> 26 µM (inactive)
C/C(=N\NC(=O)C(C)n1nc(C)c([N+](=O)[O-])c1C)c1ccccc1O (centres undefined)	> 26 µM (inactive)
COc1cccc(N=Nc2ccc(O)c3ncccc23)c1	> 26 µM (inactive)
Cc1cc(C(=O)N/N=C/c2cc(Br)cc(Br)c2OC(=O)c2cccc(F)c2)n[nH]1	> 26 µM (inactive)
Oc1[nH]c(N=C2N=c3ccccc3=N2)c2ccccc12	> 26 µM (inactive)
Cc1ccc(-c2ccc(/C=C3\C(=O)ON=C3c3ccccc3)o2)c([N+](=O)[O-])c1	> 26 µM (inactive)
COc1ccc(/C=N/NC(=O)c2nc(-c3ccccc3)n(-c3ccccc3)n2)c(O)c1	> 26 µM (inactive)
CC(C)(C)c1ccc(/C=C(\c2nc3ccccc3[nH]2)S(=O)(=O)c2ccccc2)cc1	> 26 µM (inactive)
Cc1csc2c(N3CCN(C(=O)c4ccc(C(C)(C)C)cc4)CC3)ncnc12	> 26 µM (inactive)
Cc1ccc(C2CC(c3cccc(C)c3)n3nc(N)nc3N2)cc1 (centres undefined)	> 26 µM (inactive)
CCN(CC)CCn1c2ccccc2c2cnc(N)c(C#N)c21	5.57 µM
Cc1ccc2[nH]cc(/C=C/c3cc[n+](C)cc3)c2c1	> 26 µM (inactive)
Cc1cc(N2CCCC2=O)cc(C)c1S(=O)(=O)NCCOc1ccc(C(C)(C)C)cc1	> 26 µM (inactive)
COc1cc(-c2nc3ccc(C)cn3c2NCc2ccccc2)ccc1SC1CCCCC1	> 26 µM (inactive)
CC1(C)N=C(N)N=C(N)N1c1ccc(OCCCOc2ccccc2)c(Cl)c1	> 26 µM (inactive)
CCCC[n+]1ccn(C2=C([O-])c3ccccc3C(=O)/C2=N\S(=O)(=O)c2ccc(Br)cc2)c1	> 26 µM (inactive)
